ChEMBL document CHEMBL5346907, “Discovery of a novel oral type Ⅰ CDK8 inhibitor against acute myeloid leukemia” (Eur J Med Chem, 2023)

Assays:
MOLM-13 = test: Antiproliferative activity against human MOLM-13 cells incubated for 48 hrs by CCK8 assay; assay type: functional
MV4-11 = test: Antiproliferative activity against human MV4-11 cells incubated for 48 hrs by CCK8 assay; assay type: functional
MGC-803 = test: Antiproliferative activity against human MGC-803 cells incubated for 48 hrs by CCK8 assay; assay type: functional
[1] = target: CDK1/Cyclin E (Homo sapiens) (UniProt P06493+P24864); test: Inhibition of CDK1/Cyclin E1 (unknown origin) at 1 uM preincubated for 10 mins followed by substrate addition measured for 60 to 120 mins by HTRF assay relative to control; assay type: protein-complex assay; settings: time 70-130 min
[2] = target: CDK18/Cyclin Y (Homo sapiens) (UniProt Q07002+Q8ND76); test: Inhibition of CDK18/CyclinY (unknown origin) at 1 uM preincubated for 10 mins followed by substrate addition measured for 60 to 120 mins by HTRF assay relative to control; assay type: protein-complex assay; settings: time 70-130 min
CDK7/Cyclin H/MNAT1 = CDK7/Cyclin H/MNAT1 (Homo sapiens, UniProt P50613); test: Inhibition of CDK7/Cyclin H/MAT1 (unknown origin) preincubated for 10 mins followed by substrate addition measured for 60 to 120 mins by HTRF assay; assay type: protein-complex assay
CDK6/cyclin D1 = CDK6/cyclin D1 (Homo sapiens, UniProt Q00534); test: Inhibition of CDK6/Cyclin D1 (unknown origin) preincubated for 10 mins followed by substrate addition measured for 60 to 120 mins by HTRF assay; assay type: protein-complex assay
[3] = target: Vascular endothelial growth factor receptor 2 (Homo sapiens) (UniProt P35968); test: Inhibition of KDR (unknown origin) at 1 uM preincubated for 10 mins followed by substrate addition measured for 60 to 120 mins by HTRF assay relative to control; settings: time 70-130 min
[4] = target: Tyrosine-protein kinase Fyn (Homo sapiens) (UniProt P06241); test: Inhibition of FYN b (unknown origin) at 1 uM preincubated for 10 mins followed by substrate addition measured for 60 to 120 mins by HTRF assay relative to control; settings: time 70-130 min
[5] = target: Epithelial discoidin domain-containing receptor 1 (Homo sapiens) (UniProt Q08345); test: Inhibition of DDR1 (unknown origin) at 1 uM preincubated for 10 mins followed by substrate addition measured for 60 to 120 mins by HTRF assay relative to control; settings: time 70-130 min
[6] = target: ALK tyrosine kinase receptor (Homo sapiens) (UniProt Q9UM73); test: Inhibition of ALK (unknown origin) at 1 uM preincubated for 10 mins followed by substrate addition measured for 60 to 120 mins by HTRF assay relative to control; settings: time 70-130 min
[7] = target: Tyrosine-protein kinase Lyn (Homo sapiens) (UniProt P07948); test: Inhibition of LYN a (unknown origin) at 1 uM preincubated for 10 mins followed by substrate addition measured for 60 to 120 mins by HTRF assay relative to control; settings: time 70-130 min
[8] = target: Fibroblast growth factor receptor 4 (Homo sapiens) (UniProt P22455); test: Inhibition of FGFR4 (unknown origin) at 1 uM preincubated for 10 mins followed by substrate addition measured for 60 to 120 mins by HTRF assay relative to control; settings: time 70-130 min
[9] = target: Insulin-like growth factor 1 receptor (Homo sapiens) (UniProt P08069); test: Inhibition of IGF1R (unknown origin) at 1 uM preincubated for 10 mins followed by substrate addition measured for 60 to 120 mins by HTRF assay relative to control; settings: time 70-130 min
[10] = target: Tyrosine-protein kinase receptor TYRO3 (Homo sapiens) (UniProt Q06418); test: Inhibition of TYRO3 (unknown origin) at 1 uM preincubated for 10 mins followed by substrate addition measured for 60 to 120 mins by HTRF assay relative to control; settings: time 70-130 min
[11] = target: Focal adhesion kinase 1 (Homo sapiens) (UniProt Q05397); test: Inhibition of FAK (unknown origin) at 1 uM preincubated for 10 mins followed by substrate addition measured for 60 to 120 mins by HTRF assay relative to control; settings: time 70-130 min
[12] = target: Ephrin type-B receptor 2 (Homo sapiens) (UniProt P29323); test: Inhibition of EPHB2 (unknown origin) at 1 uM preincubated for 10 mins followed by substrate addition measured for 60 to 120 mins by HTRF assay relative to control; settings: time 70-130 min
[13] = target: Ephrin type-A receptor 8 (Homo sapiens) (UniProt P29322); test: Inhibition of EPHA8 (unknown origin) at 1 uM preincubated for 10 mins followed by substrate addition measured for 60 to 120 mins by HTRF assay relative to control; settings: time 70-130 min
[14] = target: Hepatocyte growth factor receptor (Homo sapiens) (UniProt P08581); test: Inhibition of MET (unknown origin) at 1 uM preincubated for 10 mins followed by substrate addition measured for 60 to 120 mins by HTRF assay relative to control; settings: time 70-130 min
[15] = target: Ephrin type-A receptor 7 (Homo sapiens) (UniProt Q15375); test: Inhibition of EPHA7 (unknown origin) at 1 uM preincubated for 10 mins followed by substrate addition measured for 60 to 120 mins by HTRF assay relative to control; settings: time 70-130 min
[16] = target: Discoidin domain-containing receptor 2 (Homo sapiens) (UniProt Q16832); test: Inhibition of DDR2 (unknown origin) at 1 uM preincubated for 10 mins followed by substrate addition measured for 60 to 120 mins by HTRF assay relative to control; settings: time 70-130 min
[17] = target: Tyrosine-protein kinase ITK/TSK (Homo sapiens) (UniProt Q08881); test: Inhibition of ITK (unknown origin) at 1 uM preincubated for 10 mins followed by substrate addition measured for 60 to 120 mins by HTRF assay relative to control; settings: time 70-130 min
HL-60 [18] = test: Induction of apoptosis in human HL-60 cells assessed as early apoptosis cells at 1 uM incubated for 48 hrs by annexin V-FITC/PI staining based flow cytometry (reference value: 2.08 %); assay type: functional
HL-60 [19] = test: Induction of apoptosis in human HL-60 cells assessed as necrotic cells at 1 uM incubated for 48 hrs by annexin V-FITC/PI staining based flow cytometry (reference value: 0.26 %); assay type: functional
HL-60 [20] = test: Induction of apoptosis in human HL-60 cells assessed as early apoptosis cells at 5 uM incubated for 48 hrs by annexin V-FITC/PI staining based flow cytometry (reference value: 2.08 %); assay type: functional
HL-60 [21] = test: Induction of apoptosis in human HL-60 cells assessed as early apoptosis cells at 10 uM incubated for 48 hrs by annexin V-FITC/PI staining based flow cytometry (reference value: 2.08 %); assay type: functional
HL-60 [22] = test: Induction of apoptosis in human HL-60 cells assessed as late apoptotic cells at 10 uM incubated for 48 hrs by annexin V-FITC/PI staining based flow cytometry (reference value: 1.07 %); assay type: functional
[23] = MRT in Sprague-Dawley rat at 10 mg/kg, po; assay type: ADME, organism-based; settings: in vivo
[24] = Half life in Sprague-Dawley rat at 2 mg/kg, iv; assay type: ADME, organism-based; settings: in vivo
[25] = MRT in Sprague-Dawley rat at 2 mg/kg, iv; assay type: ADME, organism-based; settings: in vivo
[26] = Acute toxicity in C57BL/6 mouse assessed as histopathological change in lung at 2000 mg/kg, IG measured for 14 days by H&E staining based analysis; assay type: organism-based; settings: in vivo, po, 336 h, time 14 day

Sequence of Tyrosine-protein kinase Fyn (Homo sapiens) (P06241 2-537 limits assumed): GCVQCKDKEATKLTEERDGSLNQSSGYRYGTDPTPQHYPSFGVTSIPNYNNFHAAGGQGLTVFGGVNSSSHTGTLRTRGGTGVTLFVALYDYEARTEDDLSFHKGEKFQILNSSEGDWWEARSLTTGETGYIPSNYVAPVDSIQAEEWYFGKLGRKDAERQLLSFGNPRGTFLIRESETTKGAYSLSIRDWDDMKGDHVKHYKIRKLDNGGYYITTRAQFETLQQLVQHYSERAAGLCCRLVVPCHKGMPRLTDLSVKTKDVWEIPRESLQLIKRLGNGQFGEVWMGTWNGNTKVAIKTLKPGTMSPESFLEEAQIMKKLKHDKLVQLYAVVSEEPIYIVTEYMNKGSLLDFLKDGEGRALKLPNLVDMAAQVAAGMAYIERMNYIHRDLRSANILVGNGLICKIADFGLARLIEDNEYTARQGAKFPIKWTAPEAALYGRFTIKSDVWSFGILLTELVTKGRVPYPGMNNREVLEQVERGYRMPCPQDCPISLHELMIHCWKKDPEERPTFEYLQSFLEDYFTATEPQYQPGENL
Sequence of Vascular endothelial growth factor receptor 2 (Homo sapiens) (P35968 whole entry): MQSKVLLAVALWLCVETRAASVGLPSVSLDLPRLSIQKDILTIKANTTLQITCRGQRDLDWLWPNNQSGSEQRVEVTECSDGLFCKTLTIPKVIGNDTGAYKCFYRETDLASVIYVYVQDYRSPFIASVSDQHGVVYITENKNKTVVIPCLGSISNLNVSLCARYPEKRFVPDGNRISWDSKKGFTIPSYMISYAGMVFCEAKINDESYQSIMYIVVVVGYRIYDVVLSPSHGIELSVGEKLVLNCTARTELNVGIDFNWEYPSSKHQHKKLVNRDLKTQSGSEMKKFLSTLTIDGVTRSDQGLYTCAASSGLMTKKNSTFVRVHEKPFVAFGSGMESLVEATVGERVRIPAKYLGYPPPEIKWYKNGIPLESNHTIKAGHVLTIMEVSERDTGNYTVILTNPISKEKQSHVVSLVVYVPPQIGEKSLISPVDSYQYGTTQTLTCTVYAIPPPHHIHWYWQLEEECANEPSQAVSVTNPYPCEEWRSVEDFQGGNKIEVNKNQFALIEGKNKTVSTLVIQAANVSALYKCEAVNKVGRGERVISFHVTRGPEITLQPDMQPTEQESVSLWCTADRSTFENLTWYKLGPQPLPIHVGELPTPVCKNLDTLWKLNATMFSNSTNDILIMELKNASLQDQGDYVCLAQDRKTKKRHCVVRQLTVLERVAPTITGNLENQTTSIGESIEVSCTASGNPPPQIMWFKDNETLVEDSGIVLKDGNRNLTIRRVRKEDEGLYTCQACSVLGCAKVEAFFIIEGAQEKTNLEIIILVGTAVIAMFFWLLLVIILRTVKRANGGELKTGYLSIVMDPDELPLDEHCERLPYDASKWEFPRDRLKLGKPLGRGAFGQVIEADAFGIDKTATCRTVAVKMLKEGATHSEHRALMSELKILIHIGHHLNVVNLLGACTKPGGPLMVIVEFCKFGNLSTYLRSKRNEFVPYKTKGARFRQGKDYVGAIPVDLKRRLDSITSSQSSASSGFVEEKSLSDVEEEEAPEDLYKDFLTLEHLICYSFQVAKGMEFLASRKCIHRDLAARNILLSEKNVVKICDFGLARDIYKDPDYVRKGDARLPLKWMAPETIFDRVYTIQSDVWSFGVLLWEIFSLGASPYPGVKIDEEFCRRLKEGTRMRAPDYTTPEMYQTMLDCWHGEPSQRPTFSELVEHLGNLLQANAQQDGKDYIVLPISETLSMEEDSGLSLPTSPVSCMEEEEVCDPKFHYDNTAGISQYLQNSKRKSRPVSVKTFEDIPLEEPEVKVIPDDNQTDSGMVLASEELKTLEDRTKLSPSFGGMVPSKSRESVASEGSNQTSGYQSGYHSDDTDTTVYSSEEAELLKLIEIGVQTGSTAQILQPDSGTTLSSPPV
Sequence of Insulin-like growth factor 1 receptor (Homo sapiens) (P08069 31-736 limits assumed): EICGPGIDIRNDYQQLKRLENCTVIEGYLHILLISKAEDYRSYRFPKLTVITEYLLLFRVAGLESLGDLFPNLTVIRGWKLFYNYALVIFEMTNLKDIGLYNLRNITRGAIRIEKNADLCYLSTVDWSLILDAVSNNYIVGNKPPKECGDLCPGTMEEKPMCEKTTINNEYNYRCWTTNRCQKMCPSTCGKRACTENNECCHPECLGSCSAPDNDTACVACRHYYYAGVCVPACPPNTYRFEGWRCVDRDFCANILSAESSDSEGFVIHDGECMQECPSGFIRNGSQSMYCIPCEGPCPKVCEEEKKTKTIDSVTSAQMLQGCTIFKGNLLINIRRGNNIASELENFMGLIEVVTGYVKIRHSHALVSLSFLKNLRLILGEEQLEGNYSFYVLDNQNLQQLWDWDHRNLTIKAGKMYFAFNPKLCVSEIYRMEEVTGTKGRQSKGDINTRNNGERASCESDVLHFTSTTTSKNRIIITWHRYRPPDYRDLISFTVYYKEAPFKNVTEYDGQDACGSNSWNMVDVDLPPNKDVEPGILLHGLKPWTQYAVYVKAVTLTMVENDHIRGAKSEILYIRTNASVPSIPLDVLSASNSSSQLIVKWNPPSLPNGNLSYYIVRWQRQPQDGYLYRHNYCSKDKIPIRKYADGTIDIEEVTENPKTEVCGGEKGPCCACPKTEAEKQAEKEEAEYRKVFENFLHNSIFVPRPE
Sequence of Insulin-like growth factor 1 receptor (Homo sapiens) (P08069 741-1367 limits assumed): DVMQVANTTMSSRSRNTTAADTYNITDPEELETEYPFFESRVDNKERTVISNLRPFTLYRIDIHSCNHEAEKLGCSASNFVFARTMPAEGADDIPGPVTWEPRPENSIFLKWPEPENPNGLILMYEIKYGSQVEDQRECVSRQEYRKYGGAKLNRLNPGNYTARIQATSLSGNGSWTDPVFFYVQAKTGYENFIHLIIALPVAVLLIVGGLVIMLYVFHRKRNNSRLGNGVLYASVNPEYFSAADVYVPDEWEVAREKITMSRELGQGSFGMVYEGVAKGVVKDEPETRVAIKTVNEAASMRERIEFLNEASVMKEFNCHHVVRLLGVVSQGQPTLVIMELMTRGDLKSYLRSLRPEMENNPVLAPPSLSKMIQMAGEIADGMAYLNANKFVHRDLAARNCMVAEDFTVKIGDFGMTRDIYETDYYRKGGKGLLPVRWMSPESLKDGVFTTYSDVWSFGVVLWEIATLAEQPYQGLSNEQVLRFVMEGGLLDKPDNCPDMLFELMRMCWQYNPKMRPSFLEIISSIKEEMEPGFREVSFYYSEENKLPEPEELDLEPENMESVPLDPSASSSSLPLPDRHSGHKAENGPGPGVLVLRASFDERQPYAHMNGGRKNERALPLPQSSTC
Sequence of Ephrin type-A receptor 7 (Homo sapiens) (Q15375 28-998 limits assumed): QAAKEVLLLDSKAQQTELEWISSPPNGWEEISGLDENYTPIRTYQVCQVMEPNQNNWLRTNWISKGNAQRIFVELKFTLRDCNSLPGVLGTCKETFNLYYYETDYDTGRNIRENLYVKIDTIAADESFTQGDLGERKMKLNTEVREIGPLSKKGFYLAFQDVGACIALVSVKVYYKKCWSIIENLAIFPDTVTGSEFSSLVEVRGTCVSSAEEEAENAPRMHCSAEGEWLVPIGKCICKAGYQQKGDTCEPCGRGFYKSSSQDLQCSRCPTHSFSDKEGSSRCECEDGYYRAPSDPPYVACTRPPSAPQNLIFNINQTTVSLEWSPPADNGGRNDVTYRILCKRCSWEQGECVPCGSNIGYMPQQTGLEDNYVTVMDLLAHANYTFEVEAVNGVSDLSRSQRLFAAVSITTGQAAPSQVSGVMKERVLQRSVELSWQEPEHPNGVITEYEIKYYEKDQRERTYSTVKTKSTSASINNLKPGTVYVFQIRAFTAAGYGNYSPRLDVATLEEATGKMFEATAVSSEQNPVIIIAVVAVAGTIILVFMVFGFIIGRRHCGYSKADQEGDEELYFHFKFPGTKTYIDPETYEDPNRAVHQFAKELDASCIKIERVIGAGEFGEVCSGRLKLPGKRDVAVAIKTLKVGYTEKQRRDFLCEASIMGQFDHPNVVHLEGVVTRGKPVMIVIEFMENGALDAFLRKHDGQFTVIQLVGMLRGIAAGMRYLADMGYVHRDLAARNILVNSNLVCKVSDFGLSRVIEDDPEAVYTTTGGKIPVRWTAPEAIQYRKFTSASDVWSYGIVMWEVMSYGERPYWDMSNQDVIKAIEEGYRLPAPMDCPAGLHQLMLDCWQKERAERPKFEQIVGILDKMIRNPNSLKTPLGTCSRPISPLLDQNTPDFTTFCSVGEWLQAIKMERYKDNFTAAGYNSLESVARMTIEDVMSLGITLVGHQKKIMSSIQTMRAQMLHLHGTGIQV
Sequence of Tyrosine-protein kinase ITK/TSK (Homo sapiens) (Q08881 whole entry): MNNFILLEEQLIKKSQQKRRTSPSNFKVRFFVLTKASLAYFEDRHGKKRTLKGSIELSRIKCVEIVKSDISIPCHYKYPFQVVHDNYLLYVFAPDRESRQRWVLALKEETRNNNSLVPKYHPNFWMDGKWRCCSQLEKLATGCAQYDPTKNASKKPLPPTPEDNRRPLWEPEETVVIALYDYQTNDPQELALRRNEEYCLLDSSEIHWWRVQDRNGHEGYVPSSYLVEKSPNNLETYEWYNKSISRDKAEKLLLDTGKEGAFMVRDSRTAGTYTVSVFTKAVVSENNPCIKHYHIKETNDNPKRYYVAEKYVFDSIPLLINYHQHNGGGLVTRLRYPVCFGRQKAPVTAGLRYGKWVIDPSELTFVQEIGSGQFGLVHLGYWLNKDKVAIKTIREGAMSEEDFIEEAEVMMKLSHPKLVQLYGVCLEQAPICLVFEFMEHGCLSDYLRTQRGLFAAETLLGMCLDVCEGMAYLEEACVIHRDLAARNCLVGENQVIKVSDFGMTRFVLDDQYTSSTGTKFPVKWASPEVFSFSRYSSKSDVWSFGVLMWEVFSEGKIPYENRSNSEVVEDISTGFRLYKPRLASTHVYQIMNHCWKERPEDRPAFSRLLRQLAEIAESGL

Q: With `NC(=O)c1cccc(-c2cnc3[nH]ccc3c2)c1` as the compound, how does the GI50 (MOLM-13) read?
A: 1570 nM

Q: And the GI50 (MV4-11)?
A: 4610 nM

Q: And the GI50 (MGC-803)?
A: > 50000 nM

Q: And the inhibition [1]?
A: 8.89%

Q: What about the inhibition [2] of the same compound?
A: 3.47%

Q: And the IC50 (CDK7/Cyclin H/MNAT1)?
A: 428 nM

Q: And the IC50 (CDK6/cyclin D1)?
A: 594 nM

Q: What about the inhibition [3] of the same compound?
A: 31.1%

Q: And the inhibition [4]?
A: 24.8%

Q: What about the inhibition [5] of the same compound?
A: 20%

Q: And the inhibition [6]?
A: 19.1%

Q: What about the inhibition [7] of the same compound?
A: 15.4%

Q: What about the inhibition [8] of the same compound?
A: 14.1%

Q: What about the inhibition [9] of the same compound?
A: 7.77%

Q: What about the inhibition [10] of the same compound?
A: 7%

Q: And the inhibition [11]?
A: 6.16%

Q: What about the inhibition [12] of the same compound?
A: 0%

Q: What about the inhibition [13] of the same compound?
A: 0%

Q: What about the inhibition [14] of the same compound?
A: 0%

Q: What about the inhibition [15] of the same compound?
A: 0%

Q: What about the inhibition [16] of the same compound?
A: 0%

Q: What about the inhibition [17] of the same compound?
A: 0%

Q: What about the Activity (HL-60 [18]) of the same compound?
A: 79.4%

Q: What about the Activity (HL-60 [19]) of the same compound?
A: 5.04%

Q: What about the Activity (HL-60 [20]) of the same compound?
A: 22.4%

Q: What about the Activity (HL-60 [21]) of the same compound?
A: 0.15%

Q: And the Activity (HL-60 [22])?
A: 2.43%

Q: What about the MRT [23] of the same compound?
A: 2.47 h

Q: What about the half-life [24] of the same compound?
A: 0.81 h

Q: And the MRT [25]?
A: 1.5 h

Q: And the Activity [26]?
A: Non-Toxic
